Assay results: patent US20250320193A1, “OXOISOINDOLINYL SUBSTITUTED PIPERIDINEDIONE DERIVATIVE AND USE THEREOF” (GLUETACS THERAPEUTICS (SHANGHAI) CO., LTD., priority 2022, published 2025)
Where two headings read alike, the source gives them in different places.

Tests used:
[1] = target: IKZF3 (Homo sapiens (Human), UniProt Q96SW2+Q9UKT9); assay: Western blot, substrate protein expression in hPBMC: IKZF3; format: cell-based; settings: hPBMC, compound 500 nM, 24 hours, Western blot
Method in brief: (§1)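 hPBMC, 1×10^6 cells/mL, 24 h compound exposure; RIPA lysis, BCA protein assay, SDS-PAGE, NC membrane immunoblot. Densitometry vs internal control → % protein remaining; degradation % = 100% − remaining; DC50 = conc. at 50% of DMSO band signal.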

[2] = target: IKZF1 (Homo sapiens (Human), UniProt Q13422+Q96SW2); assay: Western blot, substrate protein expression in hPBMC: IKZF1; format: cell-based; settings: hPBMC, compound 500 nM, 24 hours, Western blot
Method in brief: as §1

[3] = tested on: Jurkat cells (human T-cell leukemia cells); assay: Tumor cell proliferation inhibition, CCK-8; format: cell-based
Method in brief: (§2)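 Cells were seeded, left for 24 h, then exposed to compound at 10 concentrations from a top of 10 μM in 5-fold serial dilutions. Viability was then read with CCK-8 reagent, and IC50 values came from the growth-inhibition curves.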

[4] = tested on: MM.1S cells (human multiple myeloma cells); assay: Tumor cell proliferation inhibition, CCK-8; format: cell-based; settings: MM1.S
Method in brief: as §2

[5] = tested on: H146 cells (human small cell lung carcinoma cells); assay: Tumor cell proliferation inhibition, CCK-8; format: cell-based
Method in brief: as §2

[6] = tested on: TMD8 cells (human diffuse large B-cell lymphoma cells); assay: Tumor cell proliferation inhibition, CCK-8; format: cell-based
Method in brief: as §2

[7] = tested on: MM.1R cells (dexamethasone-resistant human multiple myeloma cells); assay: Tumor cell proliferation inhibition, CCK-8; format: cell-based
Method in brief: as §2

[8] = tested on: CCRF-CEM (human acute lymphoblastic leukemia T-cells); assay: Tumor cell proliferation inhibition, CCK-8; format: cell-based
Method in brief: as §2

[9] = tested on: CAL-62 (human thyroid carcinoma cells); assay: Tumor cell proliferation inhibition, CCK-8; format: cell-based
Method in brief: as §2

[10] = tested on: Kasumi-1 (human acute myeloid leukemia cells); assay: Tumor cell proliferation inhibition, CCK-8; format: cell-based
Method in brief: as §2

[11] = tested on: MDA-MB-231 cells (human breast adenocarcinoma cells); assay: Tumor cell proliferation inhibition, CCK-8; format: cell-based
Method in brief: as §2

[12] = target: human Cereblon WT GST-tagged protein (Homo sapiens (Human), UniProt Q96SW2); assay: CRBN-binding affinity, HTRF (CEREBLON BINDING kit, CISBIO); settings: HTRF inhibitory activity
Method in brief: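 HTRF competition format: test compound displaces Thalidomide-Red from GST-tagged human Cereblon WT, detected with a Eu-labelled anti-GST antibody. Percent CRBN binding inhibition was derived from the 620 nm signal, normalized to solvent-control and protein-free blank wells.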

[13] = target: GSPT1 (Homo sapiens (Human), UniProt P15170+Q96SW2); assay: Western blot, substrate protein expression in hPBMC: GSPT1; format: cell-based; settings: hPBMC, compound 500 nM, 24 hours, Western blot
Method in brief: as §1

[14] = Jurkat cells, CCK-8, read-out: inhibitory activity (IC50, nM) Jurkat
[15] = MM.1S cells, CCK-8, read-out: inhibitory activity (IC50, nM) MM.1S
[16] = NCI-H146, H146 cells, CCK-8, read-out: inhibitory activity (IC50, nM) H146
[17] = TMD8 cells, CCK-8, read-out: inhibitory activity (IC50, nM) TMD8
[18] = MM.1R cells, CCK-8, read-out: inhibitory activity (IC50, nM) MM.1R
[19] = CCRF-CEM cells, CCK-8, read-out: inhibitory activity (IC50, nM) CCRF-CEM
[20] = CAL-62 cells, CCK-8, read-out: inhibitory activity (IC50, nM) CAL-62
[21] = Kasumi-1 cells, CCK-8, read-out: inhibitory activity (IC50, nM) Kasumi-1
[22] = MDA-MB-231 cells, CCK-8, read-out: inhibitory activity (IC50, nM) MDA-MB-231

Sequence of IKZF1 (Q13422 whole entry): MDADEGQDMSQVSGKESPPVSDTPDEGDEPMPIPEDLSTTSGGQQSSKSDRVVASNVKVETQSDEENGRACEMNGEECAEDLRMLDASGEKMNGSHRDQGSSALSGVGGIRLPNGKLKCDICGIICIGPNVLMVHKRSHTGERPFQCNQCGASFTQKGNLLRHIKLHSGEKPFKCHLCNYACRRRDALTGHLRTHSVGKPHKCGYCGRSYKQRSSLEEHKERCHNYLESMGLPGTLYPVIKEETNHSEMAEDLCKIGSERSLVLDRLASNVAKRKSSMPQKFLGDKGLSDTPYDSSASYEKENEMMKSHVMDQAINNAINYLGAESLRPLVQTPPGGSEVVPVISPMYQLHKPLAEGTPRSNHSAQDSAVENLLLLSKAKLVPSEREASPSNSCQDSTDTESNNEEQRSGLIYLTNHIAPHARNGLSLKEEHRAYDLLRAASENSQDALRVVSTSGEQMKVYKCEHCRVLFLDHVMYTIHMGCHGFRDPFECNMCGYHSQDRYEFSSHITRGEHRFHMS
Sequence of IKZF1 (Q96SW2 whole entry): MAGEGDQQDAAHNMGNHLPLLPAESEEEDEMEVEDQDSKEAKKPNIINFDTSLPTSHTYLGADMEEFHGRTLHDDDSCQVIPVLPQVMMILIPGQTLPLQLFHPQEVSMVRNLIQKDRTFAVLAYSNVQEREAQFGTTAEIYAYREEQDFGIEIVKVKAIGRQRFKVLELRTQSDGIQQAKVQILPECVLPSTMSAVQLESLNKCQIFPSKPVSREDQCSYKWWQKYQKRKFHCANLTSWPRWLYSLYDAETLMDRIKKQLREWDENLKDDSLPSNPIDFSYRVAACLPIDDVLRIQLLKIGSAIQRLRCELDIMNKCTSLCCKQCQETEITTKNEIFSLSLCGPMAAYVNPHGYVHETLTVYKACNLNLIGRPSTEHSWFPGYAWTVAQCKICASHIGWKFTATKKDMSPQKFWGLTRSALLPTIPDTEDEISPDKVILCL
Sequence of IKZF1 (Q16531 whole entry partner): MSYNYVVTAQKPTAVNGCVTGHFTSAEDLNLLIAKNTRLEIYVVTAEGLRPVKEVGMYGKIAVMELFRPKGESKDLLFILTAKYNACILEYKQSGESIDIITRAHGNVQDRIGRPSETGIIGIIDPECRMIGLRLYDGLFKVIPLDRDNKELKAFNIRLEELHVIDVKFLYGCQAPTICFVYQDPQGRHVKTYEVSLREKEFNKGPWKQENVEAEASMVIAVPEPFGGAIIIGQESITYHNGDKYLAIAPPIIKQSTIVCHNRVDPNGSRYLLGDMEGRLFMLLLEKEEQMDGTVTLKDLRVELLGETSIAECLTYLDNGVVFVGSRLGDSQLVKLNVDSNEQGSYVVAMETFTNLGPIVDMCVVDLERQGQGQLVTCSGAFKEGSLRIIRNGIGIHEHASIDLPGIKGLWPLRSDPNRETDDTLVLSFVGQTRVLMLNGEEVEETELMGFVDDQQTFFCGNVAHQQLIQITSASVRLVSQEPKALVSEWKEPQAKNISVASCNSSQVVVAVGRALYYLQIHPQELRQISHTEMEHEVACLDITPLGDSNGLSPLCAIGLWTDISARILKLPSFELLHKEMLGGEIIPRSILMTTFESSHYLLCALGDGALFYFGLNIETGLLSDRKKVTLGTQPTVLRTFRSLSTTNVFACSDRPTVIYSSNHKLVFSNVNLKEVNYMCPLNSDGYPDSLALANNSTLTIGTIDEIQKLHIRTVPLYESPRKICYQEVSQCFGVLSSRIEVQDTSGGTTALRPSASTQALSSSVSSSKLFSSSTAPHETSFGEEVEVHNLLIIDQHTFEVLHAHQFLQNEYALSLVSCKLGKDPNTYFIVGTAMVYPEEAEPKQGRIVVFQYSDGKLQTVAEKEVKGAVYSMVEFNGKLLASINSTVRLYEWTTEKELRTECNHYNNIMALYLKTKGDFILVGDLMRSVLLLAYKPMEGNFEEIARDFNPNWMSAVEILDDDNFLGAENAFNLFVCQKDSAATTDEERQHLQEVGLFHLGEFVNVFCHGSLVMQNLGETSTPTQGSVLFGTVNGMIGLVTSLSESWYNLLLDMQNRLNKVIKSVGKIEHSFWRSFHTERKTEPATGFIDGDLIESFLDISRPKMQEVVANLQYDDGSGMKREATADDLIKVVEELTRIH
Sequence of human Cereblon WT GST-tagged protein (Q96SW2 whole entry): as the sequence (Q96SW2 whole entry) above
Sequence of GSPT1 (P15170 whole entry): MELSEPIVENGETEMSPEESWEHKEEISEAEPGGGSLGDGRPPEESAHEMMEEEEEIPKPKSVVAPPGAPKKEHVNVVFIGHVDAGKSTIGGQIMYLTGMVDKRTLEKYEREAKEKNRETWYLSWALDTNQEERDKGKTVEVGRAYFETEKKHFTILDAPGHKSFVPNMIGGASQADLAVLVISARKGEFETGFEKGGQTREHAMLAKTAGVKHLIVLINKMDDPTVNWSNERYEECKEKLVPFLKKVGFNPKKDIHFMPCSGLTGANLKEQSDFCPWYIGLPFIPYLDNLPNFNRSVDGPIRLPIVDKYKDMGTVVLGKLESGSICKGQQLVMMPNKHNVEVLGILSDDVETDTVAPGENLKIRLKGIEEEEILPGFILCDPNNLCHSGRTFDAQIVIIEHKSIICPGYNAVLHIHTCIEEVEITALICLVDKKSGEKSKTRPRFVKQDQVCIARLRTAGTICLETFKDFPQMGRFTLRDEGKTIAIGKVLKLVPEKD
Sequence of GSPT1 (Q96SW2 whole entry): as the sequence (Q96SW2 whole entry) above
Sequence of GSPT1 (Q16531 whole entry partner): as the sequence (Q16531 whole entry partner) above
Sequence of IKZF3 (Q9UKT9 whole entry): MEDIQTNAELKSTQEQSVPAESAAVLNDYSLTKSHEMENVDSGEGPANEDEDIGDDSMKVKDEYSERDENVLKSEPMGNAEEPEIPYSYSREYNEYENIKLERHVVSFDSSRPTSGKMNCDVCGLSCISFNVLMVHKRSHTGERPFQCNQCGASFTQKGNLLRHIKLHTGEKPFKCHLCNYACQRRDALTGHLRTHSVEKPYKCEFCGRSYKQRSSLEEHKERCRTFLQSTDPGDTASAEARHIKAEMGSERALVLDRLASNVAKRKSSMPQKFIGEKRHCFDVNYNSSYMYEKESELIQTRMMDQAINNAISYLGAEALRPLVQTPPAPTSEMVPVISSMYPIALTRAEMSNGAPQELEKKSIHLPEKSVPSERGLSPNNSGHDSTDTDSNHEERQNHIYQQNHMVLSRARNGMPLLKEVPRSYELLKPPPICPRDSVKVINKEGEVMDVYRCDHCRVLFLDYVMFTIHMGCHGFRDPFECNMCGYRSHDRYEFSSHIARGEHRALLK
Sequence of IKZF3 (Q96SW2 whole entry): as the sequence (Q96SW2 whole entry) above
Sequence of IKZF3 (Q16531 whole entry partner): as the sequence (Q16531 whole entry partner) above

| Structure (SMILES) | IC50 [3, 14] | IC50 [4, 15] | IC50 [5, 16] | IC50 [7, 18] | IC50 [8, 19] | IC50 [9, 20] | IC50 [10, 21] | IC50 [11, 22] | IC50 [12] | substrate protein remaining % IKZF3 [1] | substrate protein remaining % IKZF1 [2] | substrate protein remaining % GSPT1 [13] | other results |
| --- | --- | --- | --- | --- | --- | --- | --- | --- | --- | --- | --- | --- | --- |
| O=C1CCC(N2Cc3cc(CN4CCN(C(c5ccccc5)c5ccccc5)CC4)ccc3C2=O)C(=O)N1 (centres unmarked) [GT-03245, 3-(5-((4-benzhydrylpiperazin-1-yl)methyl)-1-oxoisoindolin-2-yl)piperidine-2,6-dione] | 1 to 10 nM | 1 to 10 nM | 10 to 50 nM | < 1 nM | < 1 nM | < 1 nM | < 1 nM | 1 to 10 nM | 0.5 to 1 µM | A (A represents 0% ≤ substrate protein remaining % ≤ 50%) | A (A represents 0% ≤ substrate protein remaining % ≤ 50%) | A (A represents 0% ≤ substrate protein remaining % ≤ 50%) | IC50 [6, 17]: 10 to 50 nM |
| O=C1CCC(N2Cc3cc(CN4CCN(C(c5ccccc5)c5ccccc5)CC4)cc(F)c3C2=O)C(=O)N1 (centres unmarked) [GT-03467, 3-(5-((4-benzhydrylpiperazin-1-yl)methyl)-7-fluoro-1-oxoisoindolin-2-yl)piperidine-2,6-dione] | – | 100 to 500 nM | – | – | 10 to 50 nM | – | 50 to 100 nM | 100 to 500 nM | 0.5 to 1 µM | – | – | – | – |
| O=C1CCC(N2Cc3cc(CN4CCN(C(c5ccc(Cl)cc5)c5ccc(Cl)cc5)CC4)ccc3C2=O)C(=O)N1 (centres unmarked) [GT-03566, 3-(5-((4-(bis(4-chlorophenyl)methyl)piperazin-1-yl)methyl)-1-oxoisoindolin-2-yl)piperidine-2,6-dione] | – | 500 to 1000 nM | – | 100 to 500 nM | 10 to 50 nM | – | – | – | 1 to 1.9 µM | A (A represents 0% ≤ substrate protein remaining % ≤ 50%) | A (A represents 0% ≤ substrate protein remaining % ≤ 50%) | A (A represents 0% ≤ substrate protein remaining % ≤ 50%) | – |
| O=C1CCC(N2Cc3cc(CN4CCN(C(c5ccc(Cl)cc5)c5ccc(Cl)cc5)CC4)c(F)cc3C2=O)C(=O)N1 (centres unmarked) [GT-03699, 3-(5-((4-(bis(4-chlorophenyl)methyl)piperazin-1-yl)methyl)-6-fluoro-1-oxoisoindolin-2-yl)piperidine-2,6-dione] | – | 50 to 100 nM | – | 50 to 100 nM | 10 to 50 nM | 50 to 100 nM | – | – | – | A (A represents 0% ≤ substrate protein remaining % ≤ 50%) | B (B represents substrate protein remaining % > 50%) | A (A represents 0% ≤ substrate protein remaining % ≤ 50%) | – |
| O=C1CCC(N2Cc3cc(CN4CCN(C(c5cccc(F)c5)c5cccc(F)c5)CC4)cc(F)c3C2=O)C(=O)N1 (centres unmarked) [GT-03704, 3-(5-((4-(bis(3-fluorophenyl)methyl)piperazin-1-yl)methyl)-7-fluoro-1-oxoisoindolin-2-yl)piperidine-2,6-dione] | 100 to 500 nM | 10 to 50 nM | 100 to 500 nM | 10 to 50 nM | 1 to 10 nM | 10 to 50 nM | 50 to 100 nM | 50 to 100 nM | < 0.5 µM | A (A represents 0% ≤ substrate protein remaining % ≤ 50%) | B (B represents substrate protein remaining % > 50%) | A (A represents 0% ≤ substrate protein remaining % ≤ 50%) | – |
| O=C1CCC(N2Cc3c(ccc(CN4C[C@@H]5C[C@H]4CN5C(c4ccccc4)c4ccccc4)c3F)C2=O)C(=O)N1 (stereo partly drawn) [GT-03724, 3-(5-(((1S,4S)-5-benzhydryl-2,5-diazabicyclo[2.2.1]heptan-2-yl)methyl)-4-fluoro-1-oxoisoindolin-2-yl)piperidine-2,6-dione] | – | 10 to 50 nM | – | 10 to 50 nM | 10 to 50 nM | – | – | – | < 0.5 µM | A (A represents 0% ≤ substrate protein remaining % ≤ 50%) | A (A represents 0% ≤ substrate protein remaining % ≤ 50%) | A (A represents 0% ≤ substrate protein remaining % ≤ 50%) | – |
| O=C1CCC(N2Cc3cc(CN4C5CCC4CN(C(c4ccccc4)c4ccccc4)C5)ccc3C2=O)C(=O)N1 (centres unmarked) [GT-03837, 3-(5-((3-benzhydryl-3,8-diazabicyclo[3.2.1]octan-8-yl)methyl)-1-oxoisoindolin-2-yl)piperidine-2,6-dione] | – | 10 to 50 nM | – | 500 to 1000 nM | – | – | – | – | < 0.5 µM | A (A represents 0% ≤ substrate protein remaining % ≤ 50%) | B (B represents substrate protein remaining % > 50%) | A (A represents 0% ≤ substrate protein remaining % ≤ 50%) | – |
| O=C1CCC(N2Cc3cc(CN4C5CCC4CN(C(c4ccccc4)c4ccccc4)C5)c(F)cc3C2=O)C(=O)N1 (centres unmarked) [GT-03839, 3-(5-((3-benzhydryl-3,8-diazabicyclo[3.2.1]octan-8-yl)methyl)-6-fluoro-1-oxoisoindolin-2-yl)piperidine-2,6-dione] | – | 10 to 50 nM | 500 to 1000 nM | 10 to 50 nM | 10 to 50 nM | 10 to 50 nM | 10 to 50 nM | 50 to 100 nM | 1 to 1.9 µM | A (A represents 0% ≤ substrate protein remaining % ≤ 50%) | B (B represents substrate protein remaining % > 50%) | A (A represents 0% ≤ substrate protein remaining % ≤ 50%) | – |
| Nc1cccc2c1CN(C1CCC(=O)NC1=O)C2=O (centres unmarked) [lenalidomide, reference compound] | – | – | – | – | – | – | – | – | – | – | – | – | IC50 ([3]; Jurkat, read-out: inhibitory activity (IC50, nM) Jurkat): > 10000 nM; IC50 ([4]; read-out: inhibitory activity (IC50, nM) MM.1S): > 10000 nM; IC50 ([5]; NCI-H146, read-out: inhibitory activity (IC50, nM) H146): > 10000 nM; IC50 ([6]; TMD8, read-out: inhibitory activity (IC50, nM) TMD8): > 10000 nM; IC50 ([7]; MM.1R, read-out: inhibitory activity (IC50, nM) MM.1R): > 10000 nM; IC50 ([8]; CCRF-CEM, read-out: inhibitory activity (IC50, nM) CCRF-CEM): > 10000 nM; IC50 ([9]; CAL-62, read-out: inhibitory activity (IC50, nM) CAL-62): > 10000 nM; IC50 ([10]; Kasumi 1, read-out: inhibitory activity (IC50, nM) Kasumi-1): > 10000 nM; IC50 ([11]; MDA-MB-231, read-out: inhibitory activity (IC50, nM) MDA-MB-231): > 10000 nM |

Further lines, with some results ahead:

| IC50 [3, 14] | IC50 [4, 15] | IC50 [5, 16] | IC50 [7, 18] | IC50 [8, 19] | IC50 [9, 20] | IC50 [10, 21] | IC50 [11, 22] | IC50 [12] | Structure (SMILES) | substrate protein remaining % IKZF3 [1] | substrate protein remaining % IKZF1 [2] | substrate protein remaining % GSPT1 [13] | other results |
| --- | --- | --- | --- | --- | --- | --- | --- | --- | --- | --- | --- | --- | --- |
| 50 to 100 nM | 1 to 10 nM | 10 to 50 nM | 1 to 10 nM | – | 1 to 10 nM | – | 50 to 100 nM | 0.5 to 1 µM | O=C1CCC(N2Cc3cc(CN4CCN([C@H](c5ccccc5)c5ccccn5)CC4)ccc3C2=O)C(=O)N1 (stereo partly drawn) [GT-04523, 3-(1-oxo-5-((4-((R)-phenyl(pyridin-2-yl)methyl)piperazin-1-yl)methyl)isoindolin-2-yl)piperidine-2,6-dione] | A (A represents 0% ≤ substrate protein remaining % ≤ 50%) | A (A represents 0% ≤ substrate protein remaining % ≤ 50%) | A (A represents 0% ≤ substrate protein remaining % ≤ 50%) | IC50 [6, 17]: 500 to 1000 nM |
| 10 to 50 nM | 10 to 50 nM | 100 to 500 nM | 10 to 50 nM | – | 10 to 50 nM | – | 500 to 1000 nM | 0.5 to 1 µM | O=C1CCC(N2Cc3cc(CN4CCN([C@@H](c5ccccc5)c5ccccn5)CC4)ccc3C2=O)C(=O)N1 (stereo partly drawn) [GT-04524, 3-(1-oxo-5-((4-((S)-phenyl(pyridin-2-yl)methyl)piperazin-1-yl)methyl)isoindolin-2-yl)piperidine-2,6-dione] | A (A represents 0% ≤ substrate protein remaining % ≤ 50%) | A (A represents 0% ≤ substrate protein remaining % ≤ 50%) | A (A represents 0% ≤ substrate protein remaining % ≤ 50%) | – |
| > 10000 nM | 500 to 1000 nM | > 10000 nM | > 10000 nM | 5000 to 10000 nM | > 10000 nM | > 10000 nM | > 10000 nM | – | Nc1cccc2c1C(=O)N(C1CCC(=O)NC1=O)C2=O (centres unmarked) [pomalidomide, reference compound] | – | – | – | IC50 [6, 17]: 5000 to 10000 nM |
